PMC8524670 (Pharmacology Research & Perspectives, 2021)

How the values were obtained:
BCRP = conditions: coadministration of zanubrutinib; cited from earlier work
CYP2C9 = conditions: coadministration of zanubrutinib; cited from earlier work
CYP2D6 = CYP2D6 (Homo sapiens, UniProt P10635); test: CYP reversible inhibition in HLMs; type: in vitro ADME
OCT2 = target: T1, OCT2 (Homo sapiens, UniProt O15244); test: SLC transportation assay in HEK293 cells; type: in vitro ADME; conditions: uptake ratios <2 at 0.1, 0.3, 5 µM
T1 sequence (O15244 1-555): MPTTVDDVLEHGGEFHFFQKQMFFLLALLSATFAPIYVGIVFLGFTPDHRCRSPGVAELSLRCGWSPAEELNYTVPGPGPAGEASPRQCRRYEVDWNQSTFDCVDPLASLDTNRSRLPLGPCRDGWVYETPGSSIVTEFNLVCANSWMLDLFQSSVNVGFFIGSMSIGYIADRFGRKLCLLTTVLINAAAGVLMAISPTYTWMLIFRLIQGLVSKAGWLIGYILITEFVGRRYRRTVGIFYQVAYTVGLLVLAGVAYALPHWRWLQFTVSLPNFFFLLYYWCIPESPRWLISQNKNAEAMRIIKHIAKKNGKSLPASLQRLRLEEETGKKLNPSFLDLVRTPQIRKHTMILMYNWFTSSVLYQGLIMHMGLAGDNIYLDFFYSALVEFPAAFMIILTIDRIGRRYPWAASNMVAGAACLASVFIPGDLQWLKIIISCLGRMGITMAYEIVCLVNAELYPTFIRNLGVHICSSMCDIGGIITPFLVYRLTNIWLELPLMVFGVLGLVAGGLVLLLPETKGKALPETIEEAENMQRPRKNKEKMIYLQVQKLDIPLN

CYP3A = conditions: cited from earlier work
CYP2C8 = target: T2, CYP2C8 (Homo sapiens, UniProt P10632); test: Time-dependent CYP inhibition in HLMs; conditions: 10 µM zanubrutinib, 30 min pre-incubation with HLMs and NADPH
T2 sequence (P10632 1-490): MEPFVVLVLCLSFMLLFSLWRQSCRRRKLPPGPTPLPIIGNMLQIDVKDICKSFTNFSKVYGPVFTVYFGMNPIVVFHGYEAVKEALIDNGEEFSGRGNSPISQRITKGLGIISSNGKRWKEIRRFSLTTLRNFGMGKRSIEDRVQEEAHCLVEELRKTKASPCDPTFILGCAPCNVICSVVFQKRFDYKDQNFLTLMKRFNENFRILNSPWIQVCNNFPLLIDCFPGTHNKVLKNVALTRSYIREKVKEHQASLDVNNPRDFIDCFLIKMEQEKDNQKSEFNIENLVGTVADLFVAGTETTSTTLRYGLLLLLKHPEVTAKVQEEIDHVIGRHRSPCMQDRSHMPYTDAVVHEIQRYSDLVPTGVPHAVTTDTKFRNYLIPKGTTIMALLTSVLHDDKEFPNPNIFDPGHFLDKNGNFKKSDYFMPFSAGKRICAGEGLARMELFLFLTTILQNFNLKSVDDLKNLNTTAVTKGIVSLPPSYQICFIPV

[1] = Clinical pharmacokinetic parameters of zanubrutinib; type: in vivo, human
OAT1 = target: T3, OAT1 (Homo sapiens, UniProt Q4U2R8); test: SLC inhibition assay in HEK293 cells
T3 sequence (Q4U2R8 1-563): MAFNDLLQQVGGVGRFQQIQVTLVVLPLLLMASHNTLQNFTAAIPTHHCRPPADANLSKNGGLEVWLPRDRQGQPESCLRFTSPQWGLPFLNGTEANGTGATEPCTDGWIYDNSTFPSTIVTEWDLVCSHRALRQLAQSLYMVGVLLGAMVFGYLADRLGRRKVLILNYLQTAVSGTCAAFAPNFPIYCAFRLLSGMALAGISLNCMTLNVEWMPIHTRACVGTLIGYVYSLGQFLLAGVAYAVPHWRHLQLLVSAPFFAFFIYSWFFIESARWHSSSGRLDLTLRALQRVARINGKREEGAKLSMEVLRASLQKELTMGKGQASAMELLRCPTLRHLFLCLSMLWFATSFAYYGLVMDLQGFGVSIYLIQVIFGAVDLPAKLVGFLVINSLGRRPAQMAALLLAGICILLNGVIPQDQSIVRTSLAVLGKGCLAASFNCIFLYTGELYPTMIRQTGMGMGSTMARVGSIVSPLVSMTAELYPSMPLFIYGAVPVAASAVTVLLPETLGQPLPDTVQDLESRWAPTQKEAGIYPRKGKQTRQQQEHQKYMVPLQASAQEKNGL

CYP1A2 = conditions: DDI basic model value for induction

CYP2D6, sequence (P10635 whole entry): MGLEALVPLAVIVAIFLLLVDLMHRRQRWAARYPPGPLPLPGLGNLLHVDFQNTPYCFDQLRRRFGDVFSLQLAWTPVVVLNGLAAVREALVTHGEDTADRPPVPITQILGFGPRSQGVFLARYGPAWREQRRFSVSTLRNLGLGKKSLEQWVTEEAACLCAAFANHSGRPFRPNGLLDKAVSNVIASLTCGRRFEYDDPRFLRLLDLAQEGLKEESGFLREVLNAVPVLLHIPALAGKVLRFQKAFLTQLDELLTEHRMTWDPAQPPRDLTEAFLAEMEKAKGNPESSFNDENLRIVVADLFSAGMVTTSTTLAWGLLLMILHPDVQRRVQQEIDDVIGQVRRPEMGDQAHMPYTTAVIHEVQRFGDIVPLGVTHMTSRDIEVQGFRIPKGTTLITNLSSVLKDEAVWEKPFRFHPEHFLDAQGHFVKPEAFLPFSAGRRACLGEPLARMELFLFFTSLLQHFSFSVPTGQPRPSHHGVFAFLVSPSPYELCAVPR

SMILES: C=CC(=O)N1CCC([C@@H]2CCNc3c(C(N)=O)c(-c4ccc(Oc5ccccc5)cc4)nn32)CC1 [zanubrutinib]
- Effect on exposure of BCRP probe rosuvastatin (BCRP): did not significantly affect the exposure
- Effect on the clinical PK of warfarin (CYP2C9): no remarkable effect
- IC50 (CYP2D6): 72.9 µM
- Ki (CYP2D6; Ki, dextromethorphan, Ki = IC50/2): 36.5 µM
- Ki (CYP2D6; Kiu, dextromethorphan, unbound Ki): 28.8 µM
- R1 (CYP2D6; dextromethorphan, DDI basic model, hepatic): 1.00
- Ah (CYP2D6; dextromethorphan, static model term, liver inhibition): 1.00
- Substrate status (OCT2): unlikely to be a substrate
- Reduction in AUC0‐inf of zanubrutinib (CYP3A; co-administered with CYP3A inducer rifampin): 13.5 fold
- Increase in AUC0‐inf of zanubrutinib (CYP3A; co-administered with CYP3A inhibitor itraconazole): 3.8 fold
- Percent loss of enzymatic activity (CYP2C8): 21.9%
- Igut (intestinal concentration, Dose/250 ml) ([1]; 160 mg BID): ~ 1360 µM
- Fa (fraction absorbed) ([1]; estimated from a human mass balance study): 0.70
- Inhibition of uptake activity (OAT1; 0.05–5 µM): not inhibited
- activity at 0.05 µM (OAT1; human): 103 ± 5.6%
- activity at 0.2 µM (OAT1; human): 106 ± 7.8%
- activity at 1 µM (OAT1; human): 109 ± 3.9%
- activity at 5 µM (OAT1; human): 109 ± 3.3%
- R 3 (CYP3A4; DDI basic model value for induction): 0.23
- Cg (CYP3A4; static model term, induction in gut): 14.6
- Ch (CYP3A4; static model term, induction in liver): 1.77
- R 3 (CYP1A2): 0.37
